Times observed data for one compound are collected here from US10168342B2, “Lipid probes and uses thereof” (THE SCRIPPS RESEARCH INSTITUTE, priority 2015, dated 2019).

The structures appear in SMILES notation.

What all share (experiment): isoTOP-ABPP mapping of AEA-DA-modified peptides in Neuro2a cells
Common to all, as to assay type: cell-based

Assay [1] has as its target T1, AEA-DA-modified peptides in Neuro2a cells (Mus musculus, UniProt Q9DCC8).
T1 construct: endogenous in cells; host or cells: Neuro2a
Particulars: AEA-DA-modified peptide TOMM20 Q9DCC8 69-89, SEQ ID NO 115; probe 100 μM, 12 replicates.

Assay [2] concerns the target T2, AEA-DA-modified peptides in Neuro2a cells (Mus musculus, UniProt Q8BWM0).
T2 construct: endogenous in cells; host or cells: Neuro2a
Particulars: AEA-DA-modified peptide PTGES2 Q8BWM0 269-279, SEQ ID NO 92; probe 100 μM, 12 replicates.

Assay [3] deals with T3, AEA-DA-modified peptides in Neuro2a cells (Mus musculus, UniProt Q8BMK4).
T3 construct: endogenous in cells; host or cells: Neuro2a
Particulars: AEA-DA-modified peptide CKAP4 Q8BMK4 292-307, SEQ ID NO 23; probe 100 μM, 12 replicates.

Assay [4] has as its target T4, AEA-DA-modified peptides in Neuro2a cells (Mus musculus, UniProt P08113).
T4 construct: endogenous in cells; host or cells: Neuro2a
Particulars: AEA-DA-modified peptide HSP90B1 P08113 664-672, SEQ ID NO 51; probe 100 μM, 12 replicates.

Assay [5] concerns the target T5, AEA-DA-modified peptides in Neuro2a cells (Mus musculus, UniProt Q9CZS1).
T5 construct: endogenous in cells; host or cells: Neuro2a
The conditions noted are these: AEA-DA-modified peptide ALDH1B1 Q9CZS1 119-147, SEQ ID NO 8; probe 100 μM, 12 replicates.

The target in assay [6] is T6, AEA-DA-modified peptides in Neuro2a cells (Mus musculus, UniProt Q8BH04).
T6 construct: endogenous in cells; host or cells: Neuro2a
The conditions noted are these: AEA-DA-modified peptide PCK2 Q8BH04 245-262, SEQ ID NO 79; probe 100 μM, 12 replicates.

The target of assay [7] is T7, AEA-DA-modified peptides in Neuro2a cells (Mus musculus, UniProt P97311).
T7 construct: endogenous in cells; host or cells: Neuro2a
The conditions noted are these: AEA-DA-modified peptide MCM6 P97311 59-86, SEQ ID NO 59; probe 100 μM, 12 replicates.

For assay [8], the target named is T8, AEA-DA-modified peptides in Neuro2a cells (Mus musculus, UniProt Q9D771).
T8 construct: endogenous in cells; host or cells: Neuro2a
The conditions noted are these: AEA-DA-modified peptide TMEM206 Q9D771 247-260, SEQ ID NO 113; probe 100 μM, 12 replicates.

The target in assay [9] is T9, AEA-DA-modified peptides in Neuro2a cells (Mus musculus, UniProt Q91V01).
T9 construct: endogenous in cells; host or cells: Neuro2a
The conditions noted are these: AEA-DA-modified peptide LPCAT3 Q91V01 18-31, SEQ ID NO 58; probe 100 μM, 12 replicates.

Assay [10] has as its target T10, AEA-DA-modified peptides in Neuro2a cells (Mus musculus, UniProt P00375).
T10 construct: endogenous in cells; host or cells: Neuro2a
Particulars: AEA-DA-modified peptide DHFR P00375 20-34, SEQ ID NO 30; probe 100 μM, 12 replicates.

In assay [11] the target is T11, AEA-DA-modified peptides in Neuro2a cells (Mus musculus, UniProt Q99J47).
T11 construct: endogenous in cells; host or cells: Neuro2a
The conditions noted are these: AEA-DA-modified peptide DHRS7B Q99J47 284-300, SEQ ID NO 31; probe 100 μM, 12 replicates.

Assay [12] addresses T12, AEA-DA-modified peptides in Neuro2a cells (Mus musculus, UniProt Q62351).
T12 construct: endogenous in cells; host or cells: Neuro2a
Particulars: AEA-DA-modified peptide TFRC Q62351 7-23, SEQ ID NO 110; probe 100 μM, 12 replicates.

T1 sequence (Q9DCC8 whole entry): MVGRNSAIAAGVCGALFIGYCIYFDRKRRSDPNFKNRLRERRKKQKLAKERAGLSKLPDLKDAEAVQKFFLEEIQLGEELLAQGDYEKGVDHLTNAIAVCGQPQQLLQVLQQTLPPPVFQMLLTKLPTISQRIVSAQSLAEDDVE
T3 sequence (Q8BMK4 whole entry): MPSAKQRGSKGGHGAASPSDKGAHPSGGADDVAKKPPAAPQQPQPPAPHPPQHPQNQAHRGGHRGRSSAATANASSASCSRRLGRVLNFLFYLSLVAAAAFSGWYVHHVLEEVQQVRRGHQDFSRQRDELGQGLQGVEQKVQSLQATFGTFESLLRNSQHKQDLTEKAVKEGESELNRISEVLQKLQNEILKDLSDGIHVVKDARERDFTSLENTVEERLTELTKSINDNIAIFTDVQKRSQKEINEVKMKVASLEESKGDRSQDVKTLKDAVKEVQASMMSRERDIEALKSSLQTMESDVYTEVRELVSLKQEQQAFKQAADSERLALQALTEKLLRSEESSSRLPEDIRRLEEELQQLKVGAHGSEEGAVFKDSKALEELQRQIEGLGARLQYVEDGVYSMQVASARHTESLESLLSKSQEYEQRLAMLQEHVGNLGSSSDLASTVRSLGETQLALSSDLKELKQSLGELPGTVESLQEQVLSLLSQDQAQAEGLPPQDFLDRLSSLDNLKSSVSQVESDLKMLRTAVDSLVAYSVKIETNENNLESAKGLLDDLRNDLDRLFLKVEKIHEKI
T12 sequence (Q62351 whole entry): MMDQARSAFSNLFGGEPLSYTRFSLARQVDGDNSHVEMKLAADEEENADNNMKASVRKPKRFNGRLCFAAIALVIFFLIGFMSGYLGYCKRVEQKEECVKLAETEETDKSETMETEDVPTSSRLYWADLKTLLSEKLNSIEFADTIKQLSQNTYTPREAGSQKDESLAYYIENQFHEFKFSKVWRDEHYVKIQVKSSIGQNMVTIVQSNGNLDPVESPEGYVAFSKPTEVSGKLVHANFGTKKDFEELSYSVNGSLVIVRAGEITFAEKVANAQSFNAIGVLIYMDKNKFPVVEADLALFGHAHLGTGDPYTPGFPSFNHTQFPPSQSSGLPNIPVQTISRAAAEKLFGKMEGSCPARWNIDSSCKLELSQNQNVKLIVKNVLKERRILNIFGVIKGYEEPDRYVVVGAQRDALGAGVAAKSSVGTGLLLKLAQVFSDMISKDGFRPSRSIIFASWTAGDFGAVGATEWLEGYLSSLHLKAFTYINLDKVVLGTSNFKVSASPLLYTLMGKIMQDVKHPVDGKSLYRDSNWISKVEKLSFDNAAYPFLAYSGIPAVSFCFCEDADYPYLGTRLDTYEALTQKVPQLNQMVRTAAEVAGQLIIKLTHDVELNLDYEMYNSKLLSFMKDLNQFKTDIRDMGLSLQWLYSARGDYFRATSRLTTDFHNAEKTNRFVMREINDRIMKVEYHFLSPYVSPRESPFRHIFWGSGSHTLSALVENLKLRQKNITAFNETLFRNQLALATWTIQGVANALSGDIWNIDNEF
T10 sequence (P00375 whole entry): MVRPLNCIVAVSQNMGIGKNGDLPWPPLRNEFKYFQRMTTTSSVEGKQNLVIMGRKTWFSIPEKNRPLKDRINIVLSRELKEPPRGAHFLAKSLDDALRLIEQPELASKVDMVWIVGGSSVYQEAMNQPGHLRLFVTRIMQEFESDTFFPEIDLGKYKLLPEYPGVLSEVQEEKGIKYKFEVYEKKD
T5 sequence (Q9CZS1 20-519): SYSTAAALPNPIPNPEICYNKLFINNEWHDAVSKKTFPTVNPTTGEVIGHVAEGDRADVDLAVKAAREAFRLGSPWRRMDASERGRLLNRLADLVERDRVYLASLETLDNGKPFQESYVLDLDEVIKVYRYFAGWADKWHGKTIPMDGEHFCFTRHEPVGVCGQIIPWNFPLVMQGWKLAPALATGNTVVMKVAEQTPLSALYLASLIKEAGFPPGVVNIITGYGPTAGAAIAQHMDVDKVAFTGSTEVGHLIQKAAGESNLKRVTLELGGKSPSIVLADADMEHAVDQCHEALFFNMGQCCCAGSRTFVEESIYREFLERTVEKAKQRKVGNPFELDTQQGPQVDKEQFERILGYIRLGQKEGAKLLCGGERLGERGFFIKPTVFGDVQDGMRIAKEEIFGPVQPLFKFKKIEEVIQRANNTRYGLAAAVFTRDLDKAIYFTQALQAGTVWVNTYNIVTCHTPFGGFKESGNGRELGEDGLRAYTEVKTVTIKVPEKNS
T7 sequence (P97311 whole entry): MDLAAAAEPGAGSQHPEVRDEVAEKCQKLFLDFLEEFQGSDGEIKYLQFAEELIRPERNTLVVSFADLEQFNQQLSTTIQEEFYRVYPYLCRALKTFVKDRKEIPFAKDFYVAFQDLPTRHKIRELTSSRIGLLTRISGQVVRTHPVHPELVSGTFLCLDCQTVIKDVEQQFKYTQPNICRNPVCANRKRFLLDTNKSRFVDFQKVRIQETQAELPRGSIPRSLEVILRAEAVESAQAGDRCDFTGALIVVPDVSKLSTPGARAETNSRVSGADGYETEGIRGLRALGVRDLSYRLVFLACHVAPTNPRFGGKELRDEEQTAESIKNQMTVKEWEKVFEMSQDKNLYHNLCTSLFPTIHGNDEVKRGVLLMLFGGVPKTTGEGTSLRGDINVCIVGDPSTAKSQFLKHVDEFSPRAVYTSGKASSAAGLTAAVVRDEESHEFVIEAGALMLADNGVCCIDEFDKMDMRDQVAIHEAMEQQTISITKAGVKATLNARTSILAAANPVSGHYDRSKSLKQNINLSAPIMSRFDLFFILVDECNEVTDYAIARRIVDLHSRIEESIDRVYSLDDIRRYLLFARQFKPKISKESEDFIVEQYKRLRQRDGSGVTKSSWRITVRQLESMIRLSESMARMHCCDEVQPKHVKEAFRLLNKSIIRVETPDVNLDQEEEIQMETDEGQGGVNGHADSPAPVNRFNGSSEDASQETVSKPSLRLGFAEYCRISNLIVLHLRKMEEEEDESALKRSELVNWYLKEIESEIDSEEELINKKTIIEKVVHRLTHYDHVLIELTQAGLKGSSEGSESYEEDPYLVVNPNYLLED
T11 sequence (Q99J47 whole entry): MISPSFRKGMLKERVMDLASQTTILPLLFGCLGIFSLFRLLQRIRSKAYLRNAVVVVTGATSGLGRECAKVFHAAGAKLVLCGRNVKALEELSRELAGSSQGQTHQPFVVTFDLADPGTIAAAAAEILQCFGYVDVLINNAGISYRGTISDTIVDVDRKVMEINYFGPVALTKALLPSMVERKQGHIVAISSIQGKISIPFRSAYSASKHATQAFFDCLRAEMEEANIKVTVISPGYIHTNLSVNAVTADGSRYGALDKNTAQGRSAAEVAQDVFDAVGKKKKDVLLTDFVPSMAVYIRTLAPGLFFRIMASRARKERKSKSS
T9 sequence (Q91V01 whole entry): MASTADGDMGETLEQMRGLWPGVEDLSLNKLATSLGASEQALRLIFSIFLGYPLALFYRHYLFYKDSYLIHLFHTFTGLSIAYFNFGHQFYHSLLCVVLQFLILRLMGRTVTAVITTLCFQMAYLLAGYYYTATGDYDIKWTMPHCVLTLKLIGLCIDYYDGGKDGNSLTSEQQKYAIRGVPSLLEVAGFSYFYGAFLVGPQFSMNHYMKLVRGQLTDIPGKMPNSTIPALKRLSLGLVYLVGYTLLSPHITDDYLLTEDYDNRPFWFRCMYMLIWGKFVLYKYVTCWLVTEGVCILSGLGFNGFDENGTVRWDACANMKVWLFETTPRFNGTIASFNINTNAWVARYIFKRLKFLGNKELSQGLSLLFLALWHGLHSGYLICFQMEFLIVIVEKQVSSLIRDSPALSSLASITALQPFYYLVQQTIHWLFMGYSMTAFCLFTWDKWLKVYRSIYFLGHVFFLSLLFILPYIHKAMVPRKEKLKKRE
T2 sequence (Q8BWM0 whole entry): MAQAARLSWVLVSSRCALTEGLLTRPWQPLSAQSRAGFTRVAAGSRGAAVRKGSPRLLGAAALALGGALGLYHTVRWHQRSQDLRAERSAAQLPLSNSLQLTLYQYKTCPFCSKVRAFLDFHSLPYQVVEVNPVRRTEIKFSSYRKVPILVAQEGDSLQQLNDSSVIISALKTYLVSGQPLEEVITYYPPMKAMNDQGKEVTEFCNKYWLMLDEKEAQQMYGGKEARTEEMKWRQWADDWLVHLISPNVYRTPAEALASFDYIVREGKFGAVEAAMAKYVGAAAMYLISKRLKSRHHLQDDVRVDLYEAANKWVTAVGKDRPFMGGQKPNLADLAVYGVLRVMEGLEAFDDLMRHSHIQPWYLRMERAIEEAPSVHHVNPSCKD
T6 sequence (Q8BH04 33-640): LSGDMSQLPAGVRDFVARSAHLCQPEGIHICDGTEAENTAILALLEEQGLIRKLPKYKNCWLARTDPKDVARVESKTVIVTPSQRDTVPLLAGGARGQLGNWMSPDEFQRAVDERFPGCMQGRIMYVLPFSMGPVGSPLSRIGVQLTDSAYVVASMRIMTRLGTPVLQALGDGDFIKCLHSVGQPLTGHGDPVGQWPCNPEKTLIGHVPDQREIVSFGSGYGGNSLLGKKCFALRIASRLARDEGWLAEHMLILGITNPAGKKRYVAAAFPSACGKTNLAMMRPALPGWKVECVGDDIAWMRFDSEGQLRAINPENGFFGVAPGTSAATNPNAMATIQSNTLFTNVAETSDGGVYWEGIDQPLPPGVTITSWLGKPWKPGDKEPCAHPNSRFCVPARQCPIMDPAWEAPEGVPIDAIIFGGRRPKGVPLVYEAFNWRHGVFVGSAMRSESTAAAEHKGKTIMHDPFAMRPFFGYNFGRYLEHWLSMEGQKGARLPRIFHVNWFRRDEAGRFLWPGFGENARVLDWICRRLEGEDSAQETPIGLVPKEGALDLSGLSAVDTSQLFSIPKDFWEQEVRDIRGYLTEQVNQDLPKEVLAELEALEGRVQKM

As to `C#CCCCC1(CC/C=C\C/C=C\C/C=C\CCCC(=O)NCCO)N=N1` [AEA-DA, (5Z,8Z,11Z)-N-(2-hydroxyethyl)-14-(3-(pent-4-yn-1-yl)-3H-diazirin-3-yl)tetradeca-5,8,11-trienamide], the Times observed turned out to be 7 in assay [1]; 3 in assay [2]; 7 in assay [3]; 4 in [4]; 4 in assay [5]; 12 in assay [6]. Moreover, the Times observed is 3 in assay [7]; 2 in [8]; 2 in [9]; 4 in assay [10]; 2 in assay [11]; 2 in assay [12].
